For one experiment, the target named is PTPN11-E76K mutant enzyme (Homo sapiens (Human), UniProt Q06124, E76K). Briefly: PTPN11 Enzymatic Assay (DiFMUP phosphatase activity). In kind it is biochemical. The following applies: full length PTPN11-E76K, DiFMUP substrate; read-out: IC50, inhibition of PTPN11-E76K mutant enzyme.
PTPN11-E76K mutant enzyme, sequence (Q06124 whole entry E76K): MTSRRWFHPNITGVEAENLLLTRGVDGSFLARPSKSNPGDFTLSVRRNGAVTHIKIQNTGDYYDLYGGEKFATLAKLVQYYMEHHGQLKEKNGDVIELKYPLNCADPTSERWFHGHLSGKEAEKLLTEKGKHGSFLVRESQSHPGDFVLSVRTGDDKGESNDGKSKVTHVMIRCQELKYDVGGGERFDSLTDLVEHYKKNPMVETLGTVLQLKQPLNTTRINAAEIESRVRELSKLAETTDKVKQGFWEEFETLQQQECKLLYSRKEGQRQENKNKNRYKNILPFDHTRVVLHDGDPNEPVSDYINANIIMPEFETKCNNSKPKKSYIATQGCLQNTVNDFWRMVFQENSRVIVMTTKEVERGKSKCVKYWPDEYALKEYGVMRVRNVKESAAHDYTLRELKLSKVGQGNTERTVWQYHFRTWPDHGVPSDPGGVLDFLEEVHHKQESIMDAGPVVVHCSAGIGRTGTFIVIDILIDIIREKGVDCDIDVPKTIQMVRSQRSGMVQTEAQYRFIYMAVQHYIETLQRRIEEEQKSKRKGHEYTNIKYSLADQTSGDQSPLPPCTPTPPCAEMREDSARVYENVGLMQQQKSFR
In the case of `CCC1(N)CCN(c2cc(=O)n(-c3cccc(Cl)c3Cl)c(C)n2)CC1` [Example 4, 6-(4-amino-4-ethylpiperidin-1-yl)-3-(2,3-dichlorophenyl)-2-methyl-3,4-dihydropyrimidin-4-one], the IC50 amounted to 480 nM.
With `COc1cccc(-n2c(C)nc(N3CCC4(CC3)CO[C@@H](C)[C@H]4N)cc2=O)c1Cl` (atropisomer, axis not shown; (Sa)) [Example 7a, 6-((3S,4S)-4-amino-3-methyl-2-oxa-8-azaspiro[4.5]decan-8-yl)-3-(Sa)-(2-chloro-3-methoxyphenyl)-2-methylpyrimidin-4(3H)-one], the IC50 was above 10000 nM.
Still for that read-out and setting: then `Cc1nc(N2CCC3(CC2)CO[C@@H](C)[C@H]3N)cc(=O)n1-c1ccc(Oc2ccccc2)c(Cl)c1Cl` (atropisomer, axis not shown; (Sa)) [Example 15a, 6-((3S, 4S)-4-Amino-3-methyl-2-oxa-8-azaspiro[4.5]decan-8-yl)-3-(Sa)-(2,3-dichloro-4-phenoxyphenyl)-2-methylpyrimidin-4(3H)-one], with above 1000 nM; and `Cc1nc(N2CCC3(CC2)CO[C@@H](C)[C@H]3N)cc(=O)n1-c1ccc(Oc2ccn(C)n2)c(Cl)c1Cl` (atropisomer, axis not shown; (Ra)) [Example 16b, 6-((3 S, 4S)-4-Amino-3-methyl-2-oxa-8-azaspiro[4.5]decan-8-yl)-3-(Ra)-(2,3-dichloro-4-((1-methyl-1H-pyrazol-3-yl)oxy)phenyl)-2-methylpyrimidin-4(3H)-one], with 92 nM.
`Cc1c(N2CCC3(CC2)CO[C@@H](C)[C@H]3N)nc(C)n(-c2ccc(Oc3ccn(C)n3)c(Cl)c2Cl)c1=O` (atropisomer, axis not shown; (Sa)) [Example 18a, 6-((3S, 4S)-4-Amino-3-methyl-2-oxa-8-azaspiro[4.5]decan-8-yl)-3-(Sa)-(2,3-dichloro-4-((1-methyl-1H-pyrazol-3-yl)oxy)phenyl)-2,5-dimethylpyrimidin-4(3H)-one]: the IC50 amounted to 511 nM.
The same measure, in the same setting: with `Cc1nc(N2CCC3(CC2)CO[C@@H](C)[C@H]3N)cc(=O)n1-c1ccc(Br)c(Cl)c1Cl` [Example 6, 6-((3S,4S)-4-amino-3-methyl-2-oxa-8-azaspiro[4.5]decan-8-yl)-3-(4-bromo-2,3-dichlorophenyl)-2-methylpyrimidin-4(3H)-one] the figure was 203 nM; with `Cc1nc(N2CCC3(CC2)CO[C@@H](C)[C@H]3N)c(Cl)c(=O)n1-c1ccnc(Cl)c1Cl` [Example 17, 6-((3S, 4S)-4-Amino-3-methyl-2-oxa-8-azaspiro[4.5]decan-8-yl)-5-chloro-3-(2,3-dichloropyridin-4-yl)-2-methylpyrimidin-4(3H)-one], 618 nM.
On the same count and under the same terms, then `Cc1nc(N2CCC3(CC2)CO[C@@H](C)[C@H]3N)cc(=O)n1-c1cccc(C(F)(F)F)c1Cl` (atropisomer, axis not shown; (Sa)) [Example 14a, 6-((3S, 4S)-4-Amino-3-methyl-2-oxa-8-azaspiro[4.5]decan-8-yl)-3-(Sa)-(2-chloro-3-(trifluoromethyl)phenyl)-2-methylpyrimidin-4(3H)-one], with above 1000 nM; and `Cc1c(N2CCC3(CC2)CO[C@@H](C)[C@H]3N)nc(C)n(-c2cccc(Cl)c2Cl)c1=O` (atropisomer, axis not shown; (Sa)) [Example 10a, 6-((3S, 4S)-4-Amino-3-methyl-2-oxa-8-azaspiro[4.5]decan-8-yl)-3-(Sa)-(2,3-dichlorophenyl)-2,5-dimethylpyrimidin-4(3H)-one], with 2580 nM; and `Cc1c(N2CCC3(CC2)CO[C@@H](C)[C@H]3N)nc(C)n(-c2cccc(Cl)c2Cl)c1=O` (atropisomer, axis not shown; (Ra)) [Example 10b, 6-((3S, 4S)-4-amino-3-methyl-2-oxa-8-azaspiro[4.5]decan-8-yl)-3-(Ra)-(2,3-dichlorophenyl)-2,5-dimethylpyrimidin-4(3H)-one], with 28 nM.
Still for that read-out and setting: with `Cc1nc(N2CCC3(CC2)CO[C@@H](C)[C@H]3N)cc(=O)n1-c1cccc(F)c1F` [Example 5, 6-[(3S,4S)-4-amino-3-methyl-2-oxa-8-azaspiro[4.5]decan-8-yl]-3-(2,3-difluorophenyl)-2-methyl-3,4-dihydropyrimidin-4-one] the figure was 1170 nM; with `Cc1nc(N2CCC3(CC2)CO[C@@H](C)[C@H]3N)c(Br)c(=O)n1-c1cccc(Cl)c1Cl` (atropisomer, axis not shown; (Ra)) [Example 12b, 6-((3S, 4S)-4-amino-3-methyl-2-oxa-8-azaspiro[4.5]decan-8-yl)-5-bromo-3-(Ra)-(2,3-dichlorophenyl)-2-methylpyrimidin-4(3H)-one], 20 nM; with `Cc1cccc(-n2c(C)nc(N3CCC4(CC3)CO[C@@H](C)[C@H]4N)cc2=O)c1Cl` (atropisomer, axis not shown; (Sa)) [Example 13a, 6-((3S, 4S)-4-Amino-3-methyl-2-oxa-8-azaspiro[4.5]decan-8-yl)-3-(Sa)-(2-chloro-3-methylphenyl)-2-methylpyrimidin-4(3H)-one], 7500 nM.
With `Cc1nc(N2CCC3(CC2)CO[C@@H](C)[C@H]3N)cc(=O)n1-c1ccc(Oc2ccccc2)c(Cl)c1Cl` (atropisomer, axis not shown; (Ra)) [Example 15b, 6-((3S, 4S)-4-amino-3-methyl-2-oxa-8-azaspiro[4.5]decan-8-yl)-3-(Ra)-(2,3-dichloro-4-phenoxyphenyl)-2-methylpyrimidin-4(3H)-one], the 50% inhibitory concentration (IC50) was found to be 148 nM.
Same read-out and setting: then `Cc1cccc(-n2c(C)nc(N3CCC4(CC3)CO[C@@H](C)[C@H]4N)cc2=O)c1Cl` (atropisomer, axis not shown; (Ra)) [Example 13b, 6-((3S, 4S)-4-amino-3-methyl-2-oxa-8-azaspiro[4.5]decan-8-yl)-3-(Ra)-(2-chloro-3-methylphenyl)-2-methylpyrimidin-4(3H)-one], with 186 nM.
As for `Cc1c(N2CCC3(CC2)CO[C@@H](C)[C@H]3N)nc(C)n(-c2ccc(Oc3ccn(C)n3)c(Cl)c2Cl)c1=O` (atropisomer, axis not shown; (Ra)) [Example 18b, 6-((3 S, 4 S)-4-Amino-3-methyl-2-oxa-8-azaspiro[4.5]decan-8-yl)-3-(Ra)-(2,3-dichloro-4-((1-methyl-1H-pyrazol-3-yl)oxy)phenyl)-2,5-dimethylpyrimidin-4(3H)-one], the IC50 came to 3 nM.
As to `Cc1nc(N2CCC3(CC2)CO[C@@H](C)[C@H]3N)cc(=O)n1-c1ccc(Oc2ccn(C)n2)c(Cl)c1Cl` (atropisomer, axis not shown; (Sa)) [Example 16a, 6-((3 S, 4S)-4-Amino-3-methyl-2-oxa-8-azaspiro[4.5]decan-8-yl)-3-(Sa)-(2,3-dichloro-4-((1-methyl-1H-pyrazol-3-yl)oxy)phenyl)-2-methylpyrimidin-4(3H)-one], the IC50 came to 9550 nM.
Same read-out and setting: with `Cc1nc(N2CCC3(CC2)CO[C@@H](C)[C@H]3N)c(Br)c(=O)n1-c1cccc(Cl)c1Cl` (atropisomer, axis not shown; (Sa)) [Example 12a, 6-((3S, 4S)-4-Amino-3-methyl-2-oxa-8-azaspiro[4.5]decan-8-yl)-5-bromo-3-(Sa)-(2,3-dichlorophenyl)-2-methylpyrimidin-4(3H)-one] the figure was 3460 nM.
Same read-out and setting: then `Cc1c(N2CCC3(CC2)CO[C@@H](C)[C@H]3N)nc(C)n(-c2ccc(Oc3cc[nH]n3)c(Cl)c2Cl)c1=O` (atropisomer, axis not shown; (Ra)) [Example 20b, 3-(4-((1H-pyrazol-3-yl)oxy)-(Ra)-2,3-dichlorophenyl)-6-((3S, 4S)-4-amino-3-methyl-2-oxa-8-azaspiro[4.5]decan-8-yl)-2,5-dimethylpyrimidin-4(3H)-one], with 5 nM.
Same read-out and setting: with `Cc1nc(N2CCC(C)(CN)CC2)cc(=O)n1-c1cccc(Cl)c1Cl` [Example 3, 6-[4-(aminomethyl)-4-methylpiperidin-1-yl]-3-(2,3-dichlorophenyl)-2-methyl-3,4-dihydropyrimidin-4-one] the figure was 310 nM; with `CNC(=O)c1ccc(Oc2ccc(-n3c(C)nc(N4CCC5(CC4)CO[C@@H](C)[C@H]5N)c(C)c3=O)c(Cl)c2Cl)cc1` (atropisomer, axis not shown; (Ra)) [Example 19b], 12 nM.
On to `COc1cccc(-n2c(C)nc(N3CCC4(CC3)CO[C@@H](C)[C@H]4N)cc2=O)c1Cl` (atropisomer, axis not shown; (Ra)) [Example 7b, 6-((3S,4S)-4-amino-3-methyl-2-oxa-8-azaspiro[4.5]decan-8-yl)-3-(Ra)-(2-chloro-3-methoxyphenyl)-2-methylpyrimidin-4(3H)-one], for which the IC50 turned out to be 153 nM.
Same read-out and setting: with `Cc1nc(N2CCC3(CC2)CO[C@@H](C)[C@H]3N)cc(=O)n1-c1cccc(C(F)(F)F)c1Cl` (atropisomer, axis not shown; (Ra)) [Example 14b, 6-((3 S, 4S)-4-Amino-3-methyl-2-oxa-8-azaspiro[4.5]decan-8-yl)-3-(Ra)-(2-chloro-3-(trifluoromethyl)phenyl)-2-methylpyrimidin-4(3H)-one] the figure was 703 nM; with `Cc1nc(N2CCC3(CC2)CO[C@@H](C)[C@H]3N)cc(=O)n1-c1cccc(Cl)c1Br` [Example 8, 6-((3S,4S)-4-amino-3-methyl-2-oxa-8-azaspiro[4.5]decan-8-yl)-3-(2-bromo-3-chlorophenyl)-2-methylpyrimidin-4(3H)-one], 360 nM.

For a further experiment, the system named is KYSE520 xenografts. In words: In vivo anti-tumor efficacy, KYSE520 xenograft model. Also noted: species or system NSG (NOD scid gamma) mice. The settings on record: NSG mice, subcutaneous KYSE520 xenografts, oral gavage once a day for 21 days.
For the compound `Cc1c(N2CCC3(CC2)CO[C@@H](C)[C@H]3N)nc(C)n(-c2cccc(Cl)c2Cl)c1=O` (atropisomer, axis not shown; (Ra)) [Example 10b, 6-((3S, 4S)-4-amino-3-methyl-2-oxa-8-azaspiro[4.5]decan-8-yl)-3-(Ra)-(2,3-dichlorophenyl)-2,5-dimethylpyrimidin-4(3H)-one], the tumor growth inhibition result is “dose-dependent tumor growth inhibition”.

As a reminder, the IC50 is the concentration that inhibits the measured activity by half.

For the origin of these results see patent publication US11104675B2, “PTPN11 inhibitors” (NAVIRE PHARMA, INC., priority 2018, dated 2021).
